Measured values published in PMC6089189, “Targeting inhibitors of apoptosis proteins suppresses medulloblastoma cell proliferation via G2/M phase arrest and attenuated neddylation of p21” (Cancer Medicine, 2018).
Residues, ends and D or L forms follow the SMILES beside them. *: point of attachment. Cbz = O=C(OCc1ccccc1)*

Assays:
Format in all cases: cell-based
[1] = test system: HA‐h cells (human astrocyte‐hippocampal); test: MTT cell viability assay, HA‐h; details: for IC50: HA‐h, MTT; for effect on HA‐h cell proliferation: 30 μmol/L, 72 h
Procedure: (§1) This assay was carried out using thiazolyl blue tetrazolium bromide (MTT; Sigma), as described in previous studies.12 Cell viability was calculated using the formula: (OD of experimental well/OD of control well) × 100%.
(§2) Figure 1 High Levels of IAPs in MB Cells Correspond to Sensitivity to IAP Inhibitors LBW242 or LCL161. A, The levels of IAPs and p21 in MB cell lines DAOY, D283MED and normal controls HA‐h and BJ were determined by immunoblotting. Their levels in MB cells were quantitated, normalized by GAPDH, presented in a bar graph, and compared to those in HA‐h cells. B, DAOY, D283MED, HA‐h, and BJ cell lines were treated with LBW242 or LCL161 at different concentrations (0, 5, 10, 20, and 40 μmol/L) and DMSO (control) for 72 h. Cell viability was determined by MTT assay. Data are represented as mean ± SEM of three independent experiments (*P < 0.05, **P < 0.01, and ***P < 0.005)

D283MED cells [2] = test: MTT cell viability assay, D283MED
Procedure: as §1, §2

DAOY cells [3] = test: MTT cell viability assay, DAOY
Procedure: as §1, §2

DAOY cells [4] = test: Apoptosis by Annexin V/PI and FACS, DAOY; details: Annexin V‐positive population by FACS
D283MED cells [5] = test: Cell cycle analysis (PI, FACS), D283MED; details: siRNA with DMSO control, vincristine or cisplatin, Fig. S2
Procedure: (§3) MB cells were harvested following treatment with reagents. Cells were fixed with 70% ethanol, and then stored at −20°C overnight. Subsequent to equilibrating to room temperature, the cells were permeabilized with PBS containing 0.5% Triton X‐100 and 0.05% RNAse followed by staining with 50 μg/mL propidium iodide (PI; Sigma) at 4°C for 30 minutes. Finally, DNA content was detected by fluorescence‐activated cell sorting (FACS; Beckman Coulter Epics XL, Brea, CA, USA), and data were analyzed by EXPO32 ADC software (Beckman‐Coulter, USA).
(§4) A, MB cells were treated with DMSO (control), vincristine (1.25 nmol/L for DAOY and 2.5 nmol/L for D283MED), or cisplatin (0.31 μmol/L for DAOY and 0.625 μmol/L for D283MED), or in combination with LCL161 (10 μmol/L) or LBW242 (10 μmol/L) for 72 h. Thereafter, cells were harvested and their DNA contents were analyzed by FACS. B, The proportion of each cell cycle compartment was shown in bar graphs.

D283MED cells [6] = test: Apoptosis by Annexin V/PI and FACS, D283MED; details: Annexin V‐positive population by FACS
DAOY cells [7] = test: Cell cycle analysis (PI, FACS), DAOY; details: siRNA with DMSO control, vincristine or cisplatin, Fig. S2
Procedure: as §3, §4

[8] = test system: BJ cells (normal fibroblast cell line); test: MTT cell viability assay, BJ; details: for IC50: BJ, MTT; for effect on BJ cell proliferation: 30 μmol/L, 72 h
Procedure: as §1, §2

[9] = test system: CDK1, CDK2, cyclin A and cyclin B1; test: Immunoblotting of G2/M transition‐related proteins in MB cells; details: 72 h
From the text: (§5) Antibody against XIAP, cIAP2, p21, or p53 was purchased from Cell Signaling Technology (Danvers, MA, USA); antibody for detection of cIAP1, cIAP1/2, p27, p16, GAPDH, cyclin A, or cyclin B1 was purchased from Santa Cruz Biotechnology (Dallas, TX, USA); antibodies against CDK1 and CDK2 were bought from Millipore (Burlington, MA, USA) and Upstate Biotechnology, respectively. The blotting membrane was developed using enhanced chemiluminescence (ECL) substrate (Millipore), and analyzed by densitometry and Image J (National Institutes of Health, USA).
as §4

ubiquitination of p21 = test: Immunoprecipitation of p21, ubiquitination (Ub‐HA); details: MB cells, in the presence of MG‐132 for 6 hours
Procedure: (§6) To observe ubiquitination or neddylation of p21, anti‐p21 antibody (Cell Signaling Technology) and Meg‐Beads‐Protein G (TOOLs) were added into total cell lysates collected from MB cells after transfected with plasmid overexpressing ubiquitin‐hemagglutinin (HA; Addgene, Cambridge, MA, USA) or NEDD8‐HA (Addgene) and treated with MG‐132 for 6 hours. Thereafter, immunoprecipitates were analyzed by immunoblotting with anti‐HA antibody (Sigma).
(§7) Figure 6 IAP Antagonist LBW242 Attenuates p21‐Interacted cIAP1 Expression and Neddylation of p21. A, To examine the ubiquitination of p21, MB cells were transfected with the plasmid carrying ubiquitin (Ub)‐HA and then treated with LBW242 combined with MG‐132 for 6 h. Total cell lysates were used for immunoprecipitation of p21, and subsequently applied to immunoblotting for detection of Ub‐HA, cIAP1, and cIAP2. B, To detect the neddylation of p21, MB cells were transfected with the plasmid overexpressing NEDD8‐HA, treated with MG‐132 and LBW242, and then subjected to immunoprecipitation. C, To examine whether cIAP1 dominates neddylation of p21, MB cells were co‐transfected with cIAP1 siRNA and NEDD8‐HA overexpressed plasmid, treated with MG‐132 for 6 h, and then applied to immunoprecipitation. D, DAOY cells were treated with MG‐132 for 6 h, and stained by immunofluorescence with anti‐cIAP1, anti‐cIAP2, and anti‐p21 antibodies. […]

neddylation of p21 = test: Immunoprecipitation of p21, neddylation (NEDD8‐HA); details: MB cells, in the presence of MG‐132 for 6 hours
Procedure: as §6, §7

p21 RNA = test: RT‐PCR analysis of p21 RNA in MB cells; details: DAOY and D283MED
From the text: Total RNA was extracted using trizole reagent (Easypure Total RNA Reagent) and converted into cDNA product using iScript cDNA Synthesis Kit (BIO‐RAD, Hercules, CA, USA). The cDNA product was mixed with PCR Master Mix reagent (Promega, Madison, WI, USA) and PCR primers, and then subjected to 1% agarose gel electrophoresis. The target gene expression was normalized by GAPDH. Primer sequences for p21 are 5′‐[…]‐3′ (forward) and 5′‐GGGCTTCCTCTTGGA‐GAAGAT‐3′ (reverse); primer sequences for cIAP1 are 5′‐[…]‐3′ (forward) and 5′‐[…]‐3′ (reverse); primer sequences for cIAP2 are 5′‐[…]‐3′ (forward) and 5′‐CAAGTAGATGAGGGTAA‐CTGGC‐3′ (reverse); primer sequences for GAPDH are 5′‐TGAAGGTCGGAGTCA‐ACGGATTTGGT‐3′ (forward) and 5′‐[…]‐3′ (reverse).

p21 = test: Immunoblotting of p21 protein in MB cells; details: DAOY and D283MED
From the text: as §5
(§8) Figure 4 IAPs Inhibition Increases the Protein Levels of p21, which are Governed by Proteasomal Degradation. A, DAOY and D283MED cells were incubated with LBW242 (10 μmol/L) for 0‐360 min. Total cell lysates were collected at different time points and then subjected to immunoblotting. B, The protein levels of cIAP1 and p21 were quantitated, normalized by the levels of GAPDH, and shown in the curve graphs. C, MB cells were transfected with siRNAs against cIAP1 or cIAP2, and nontargeting (NT) siRNA, and protein levels of cIAP1, cIAP2, and p21 were detected by immunoblotting. D, MB cells were treated with MG‐132, CHX, and MNL4924 to verify p21 protein degradation. The levels of p21 were analyzed by immunoblotting

cIAP1 = test: Immunoblotting of IAPs in MB cells, time course; details: 10 μmol/L, in 60 minutes, DAOY and D283MED
From the text: as §5, §8

[10] = test system: MB cells (DAOY and D283MED); test: MTT cell viability / proliferation, stated for MB cells together; details: 30 μmol/L, 72 h
Procedure: as §1, §2

[11] = cisplatin alone or with IAP inhibitor (10 μmol/L)
[12] = cisplatin 72 h, with or without siRNA transfection
[13] = Homo sapiens, vincristine alone or with IAP inhibitor (10 μmol/L)

Structure (SMILES): N.N.[Cl][Pt][Cl] [Cisplatin, cisplatin]
- IC50 [1, 11]: > 5000 nM
- IC50 (D283MED cells [2]; [12]): > 2500 nM
- IC50 (D283MED cells [2]; [11]): 1200 ± 250 nM
- IC50 (DAOY cells [3]; [12]): 740 ± 60 nM
- IC50 (DAOY cells [3]; [11]): 1800 ± 100 nM
- Apoptosis (%) (DAOY cells [4]): 13.3 ± 2.4%
- G2/M (proportion of cells) (D283MED cells [5]): 19.10%
- Apoptosis (%) (D283MED cells [6]): 55.3 ± 3.5%
- G2/M (proportion of cells) (DAOY cells [7]): 16.70%
- IC50 [8, 11]: > 5000 nM

Structure (SMILES): CN[C@@H](C)C(=O)N[C@H](C(=O)N1CC[C@H]2CCN(CCc3ccccc3)C[C@H]21)C1CCCCC1 [LBW242]
- protein levels of CDK1, CDK2, cyclin A and cyclin B1 [9]: decreased
- ubiquitination of p21 (ubiquitination of p21): no effect
- effect on HA‐h cell proliferation [1]: only mildly slowed
- Apoptosis (%) (DAOY cells [4]): 22.6 ± 1.2%
- neddylation of p21 (neddylation of p21): reduced neddylation of p21
- Apoptosis (%) (D283MED cells [6]): 20.1 ± 0.3%
- p21 transcriptional (RNA) levels (p21 RNA): does not affect p21 RNA levels
- p21 protein expression (p21): enhances p21 expression
- cIAP1 protein expression (cIAP1): effectively inhibited cIAP1 rather than cIAP2 or XIAP expression
- inhibition of proliferation activities [10]: 50%
- effect on BJ cell proliferation [8]: only mildly slowed

Structure (SMILES): CN[C@@H](C)C(=O)N[C@H](C(=O)N1CCC[C@H]1c1nc(C(=O)c2ccc(F)cc2)cs1)C1CCCCC1 [LCL161]
- protein levels of CDK1, CDK2, cyclin A and cyclin B1 [9]: decreased
- effect on HA‐h cell proliferation [1]: only mildly slowed
- Apoptosis (%) (DAOY cells [4]): 17.2 ± 2.5%
- Apoptosis (%) (D283MED cells [6]): 14.0 ± 0.4%
- inhibition at 30 µM ([10]; read-out: inhibition of proliferation activities): 50%
- effect on BJ cell proliferation [8]: only mildly slowed

Structure (SMILES): CC(C)C[C@@H](C=O)NC(=O)[C@H](CC(C)C)NC(=O)[C@H](CC(C)C)NC(=O)OCc1ccccc1 [MG‐132] (Cbz-Leu-Leu-Leu-aldehyde)
- p21 protein expression (p21): accumulated in a time‐dependent manner

Structure (SMILES): NS(=O)(=O)OC[C@@H]1C[C@@H](n2ccc3c(N[C@H]4CCc5ccccc54)ncnc32)C[C@@H]1O [MLN4924]
- p21 protein expression (p21): accumulated in a time‐dependent manner

Structure (SMILES): CC[C@]1(O)C[C@H]2CN(CCc3c([nH]c4ccccc34)[C@@](C(=O)OC)(c3cc4c(cc3OC)N(C=O)[C@H]3[C@@](O)(C(=O)OC)[C@H](OC(C)=O)[C@]5(CC)C=CCN6CC[C@]43[C@@H]65)C2)C1 [Vincristine]
- IC50 [1, 13]: > 20 nM
- IC50 (D283MED cells [2]; Homo sapiens, D283 Med, vincristine 72 h, with or without siRNA transfection): > 5 nM
- IC50 (D283MED cells [2]; Homo sapiens, D283 Med, vincristine alone or with IAP inhibitor (10 μmol/L)): 5.7 ± 0.47 nM
- IC50 (DAOY cells [3]; Homo sapiens, vincristine 72 h, with or without siRNA transfection): 3.47 ± 0.28 nM
- IC50 (DAOY cells [3]; [13]): 5.5 ± 0.61 nM
- Apoptosis (%) (DAOY cells [4]): 6.0 ± 2.1%
- G2/M (proportion of cells) (D283MED cells [5]): 21.20%
- Apoptosis (%) (D283MED cells [6]): 34.4 ± 2.4%
- G2/M (proportion of cells) (DAOY cells [7]): 18.28%
- IC50 ([8]; Homo sapiens, chemotherapeutic agent alone or with IAP inhibitor (10 μmol/L)): > 5 nM

Structure (SMILES): C[C@@H]1C[C@@H]([C@H](O)CC2CC(=O)NC(=O)C2)C(=O)[C@@H](C)C1 [cycloheximide]
- p21 protein expression (p21): decreased p21 protein levels after 30 minutes
